Measurements from patent US20080312201A1, “Reduced Toxicity Methotrexate Formulations and Methods for Using the Same” (priority 2004, published 2008).

What was measured:
[1] = Mouse testing: weight gain under repeated methotrexate; assay type: in vivo; settings: older juvenile mice, cohort of six; for weight: treatments every other day
Description: (§1) The primary aspect is testing in mice for the ability to translate the toxic reducing action of the additive from flies into mice. Methotrexate was administered at a more moderate dose level, repeatedly over a long period of time. All additives tested for reducing the toxic side effects of MTX in mice were successful. That is 100% of the compounds identified in flies as toxic reducing compounds translated this activity into mice, for both chronic and acute applications. One of the signs of chronic liver damage by methotrexate is metabolic weight gain. The treatments were done on older juvenile mice (cohort of six). There weight gain was followed for two weeks with treatments given every other day.

mice = assay: Mouse testing: toxic side effects of MTX, liver examination; assay type: in vivo; settings: after two weeks of treatment every other day
Description: as §1
At the end of the experiment, livers were examined.

fruit flies = assay: Lethal dose (LD) curve in fruit flies; assay type: in vivo, Drosophila; settings: chemical mixed into food and water, 50 wild-type embryos; range tested 0.01 mM to 5 mM
Description: The LD curve in fruit flies was generated for methotrexate. The data to generate the curve was obtained by: Mixing a specific concentration of chemical into the food and water supply of the fruit flies, then 50 wild-type embryos are added to the assay. The LD value for this concentration was calculated by 100−(2×(number of alive flies)). The LD curve was generated by repeating this method over a concentration range. For example, the concentration range tested for methotrexate was 0.01 mM to 5 mM. The LD 98 was identified for methotrexate was 0.5 mM. The LD98 was used as a stringent level for identifying additive chemicals that reduce the toxicity. This stringent level of toxicity is key for several reasons: 1) The high toxicity dose turns even mild toxic side effects into significant barriers for the flies to survive. At the LD98 concentration of methotrexate, all of the toxic mechanisms are orders of magnitude above that observed at physiological treatment doses. At the LD98 dose, suppressing any one toxicity side effect will not enable significant survival of the flies. An additive that enables significant survival is more likely able to reduce all toxic side effects of methotrexate.

Ovarian cancer cell = assay: Human cancer cell assessment; assay type: cell-based
Source text: As a quick secondary screen, the additive alone and in combination with the target drug was examined in these human cancer cell lines. The results of TK-336 are shown as a specific example. The compound alone when treated over a wide concentration range had no effects against the cancer cells.

Which results are given for `CN(Cc1cnc2nc(N)nc(N)c2n1)c1ccc(C(=O)N[C@@H](CCC(=O)O)C(=O)O)cc1` [MTX]?
weight ([1]; Day 0): 107; weight ([1]; Day 7): 107; weight ([1]; Day 14): 110; weight gain/week ([1]; over two weeks): ~1 % weight gain/week; appearance of the livers at the end of the experiment (mice): smaller, yellow/orange in color and had almost no veins in the organ; vein density in the liver (mice): 5 % of the normal density; LD98 (fruit flies): 0.5 mM; Cell survival (Ovarian cancer cell; 15 μg/ml): 50%; Cell survival (Ovarian cancer cell; 30 μg/ml): 5%
